Data on 4 compounds can be found in publication PMC11440035, “Interaction of myricetin, ampelopsin (dihydromyricetin), and their sulfate metabolites with serum albumin, cytochrome P450 (CYP2C9, 2C19, and 3A4) enzymes, and organic anion‐transporting polypeptides (OATP1B1 and OATP2B1)” (Pharmacology Research & Perspectives, 2024).

One data set concerns the target T1, OATP2B1 (Homo sapiens, UniProt O94956).
T1 construct: expressed in transfected cells; host or cells: A431
T1 sequence (O94956 1-709): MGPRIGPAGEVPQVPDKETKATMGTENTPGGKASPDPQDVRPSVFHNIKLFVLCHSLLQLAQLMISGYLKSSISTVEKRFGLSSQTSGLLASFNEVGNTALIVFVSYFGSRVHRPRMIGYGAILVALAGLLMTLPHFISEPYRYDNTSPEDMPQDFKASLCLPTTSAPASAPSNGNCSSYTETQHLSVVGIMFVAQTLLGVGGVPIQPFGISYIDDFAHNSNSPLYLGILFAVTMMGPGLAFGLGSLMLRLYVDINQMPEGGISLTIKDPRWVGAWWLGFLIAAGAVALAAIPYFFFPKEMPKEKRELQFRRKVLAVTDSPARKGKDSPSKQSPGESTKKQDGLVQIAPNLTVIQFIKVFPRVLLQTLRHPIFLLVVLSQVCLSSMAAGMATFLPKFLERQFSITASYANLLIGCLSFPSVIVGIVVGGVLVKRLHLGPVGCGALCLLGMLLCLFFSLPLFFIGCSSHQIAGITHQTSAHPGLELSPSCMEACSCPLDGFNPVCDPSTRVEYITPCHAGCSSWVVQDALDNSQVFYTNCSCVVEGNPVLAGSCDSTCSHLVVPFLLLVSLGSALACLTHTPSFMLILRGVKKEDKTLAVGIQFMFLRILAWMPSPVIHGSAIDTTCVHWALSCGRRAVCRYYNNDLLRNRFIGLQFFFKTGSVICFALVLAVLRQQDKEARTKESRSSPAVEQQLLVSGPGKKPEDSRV
The data set can be described thus: Uptake of flavonoids by A431-OATP2B1 versus mock cells (APB fluorescence). Type of data set: cell-based. Conditions: for cellular flavonoid level in OATP2B1‐overexpressing versus mock control cells: 10 μM flavonoid, 15 min, 37°C; for substrate of OATP2B1: conclusion from uptake studies. The protocol:
(§1) Direct uptake of AMP, MYR, and their sulfate metabolites were examined in A431 cells overexpressing OATP1B1 or OATP2B1, and in their mock‐transfected controls using APB as a fluorescence enhancer. One day before the uptake measurements, the cells were seeded onto 96‐well plates at a density of 80 000 cells/well in DMEM (200 μL). The following day, the cell culture medium was removed, and the cells were rinsed thrice with PBS (200 μL). Thereafter, the cells were preincubated with HBSS (50 μL) for 5 min at 37°C. The uptake reaction was initiated by the addition of a further 50 μL of HBSS containing AMP, MYR, or their sulfate conjugates (10 μM). After incubating for 15 min at 37°C, the reaction was stopped by removing the supernatant and rinsing the cells three times with ice‐cold PBS. Then PBS buffer (200 μL) containing APB (250 μg/mL) and BSA (1 mg/mL) was added to each well.[35] The fluorescence was read using an Enspire plate reader using the wavelengths listed in Section 2.7.
(§2) The concentration‐dependent uptake of M3′S was also tested under the same conditions, except the cells were incubated with 0–10 μM M3′S for 2 min (OATP1B1) or 5 min (OATP2B1).
(§3) To test the effect of BSP (a known inhibitor of OATPs[44]) on the cellular uptake of M3′S, cells were preincubated with HBSS buffer (50 μL) with or without BSP (20 μM) for 5 min at 37°C. Thereafter, we added 50 μL of HBSS containing M3′S (final concentration: 2 μM), and cells were further incubated at 37°C for 2 min (OATP1B1) or 5 min (OATP2B1). The reaction was stopped by removing the supernatant. After washing the cells with ice‐cold PBS, a PBS buffer with APB/BSA was added. Fluorescence was determined by applying an Enspire plate reader at excitation/emission wavelengths of 480/540 nm.

A further data set concerns the target T2, OATP1B1 (Homo sapiens, UniProt Q9Y6L6).
T2 construct: expressed in transfected cells; host or cells: A431
T2 sequence (Q9Y6L6 1-691): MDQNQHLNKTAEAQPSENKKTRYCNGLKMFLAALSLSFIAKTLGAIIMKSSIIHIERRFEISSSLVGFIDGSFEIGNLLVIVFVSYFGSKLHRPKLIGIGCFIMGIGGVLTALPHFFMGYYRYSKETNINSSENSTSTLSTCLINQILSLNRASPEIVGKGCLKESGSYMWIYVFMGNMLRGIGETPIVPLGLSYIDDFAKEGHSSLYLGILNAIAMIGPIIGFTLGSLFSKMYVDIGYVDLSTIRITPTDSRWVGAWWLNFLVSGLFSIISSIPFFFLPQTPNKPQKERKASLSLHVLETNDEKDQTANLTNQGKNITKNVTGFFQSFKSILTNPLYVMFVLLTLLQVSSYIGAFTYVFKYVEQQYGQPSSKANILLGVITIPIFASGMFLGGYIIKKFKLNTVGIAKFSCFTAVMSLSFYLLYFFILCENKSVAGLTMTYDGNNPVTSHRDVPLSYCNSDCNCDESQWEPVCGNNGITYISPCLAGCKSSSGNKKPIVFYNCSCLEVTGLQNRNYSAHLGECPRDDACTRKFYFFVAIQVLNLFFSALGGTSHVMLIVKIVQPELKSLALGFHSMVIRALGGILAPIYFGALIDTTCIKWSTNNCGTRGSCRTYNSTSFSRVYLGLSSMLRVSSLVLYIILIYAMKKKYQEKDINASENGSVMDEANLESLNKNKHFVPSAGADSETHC
The data set is described as follows: Uptake of flavonoids by A431-OATP1B1 versus mock cells (APB fluorescence). The following applies: for cellular flavonoid level in OATP1B1‐overexpressing versus mock control cells: 10 μM flavonoid, 15 min, 37°C; for substrate of OATP1B1: conclusion from uptake studies. Format: cell-based. The protocol: as §1, §2, §3

For `O=C1c2c(O)cc(O)cc2O[C@H](c2cc(O)c(O)c(O)c2)[C@H]1O` [AMP, ampelopsin], at OATP2B1, the “cellular flavonoid level in OATP2B1‐overexpressing versus mock control cells” value is given as “did not show statistically significant differences” and the “substrate of OATP2B1” value is reported as “not substrates”. In addition, at OATP1B1, the “cellular flavonoid level in OATP1B1‐overexpressing versus mock control cells” value is reported as “did not show statistically significant differences” and the “substrate of OATP1B1” value was “not substrates”.

As to `O=c1c(O)c(-c2cc(O)c(O)c(O)c2)oc2cc(O)cc(O)c12` [MYR, myricetin], at OATP2B1, the “cellular flavonoid level in OATP2B1‐overexpressing versus mock control cells” value is recorded as “did not show statistically significant differences” and the “substrate of OATP2B1” value was “not substrates”. Moreover, at OATP1B1, the “cellular flavonoid level in OATP1B1‐overexpressing versus mock control cells” value is “did not show statistically significant differences” and the “substrate of OATP1B1” value was “not substrates”.

Turning to `O=c1c(O)c(-c2cc(O)c(O)c(OS(=O)(=O)O)c2)oc2cc(O)cc(O)c12` [M3′S, myricetin‐3′‐O‐sulfate], on OATP2B1 (0–10 μM, 5 min), the “concentration‐dependent uptake in OATP2B1‐overexpressing cells” value was “saturable uptake”. Besides, on OATP2B1, the “cellular flavonoid level in OATP2B1‐overexpressing versus mock control cells” value is reported as “almost five‐fold” and the “substrate of OATP2B1” value is “substrate”. The “concentration‐dependent uptake in OATP1B1‐overexpressing cells” value on OATP1B1 (0–10 μM, 2 min) was “saturable uptake”. In addition, on OATP1B1, the “cellular flavonoid level in OATP1B1‐overexpressing versus mock control cells” value was “more than two‐fold” and the “substrate of OATP1B1” value is given as “substrate”.

`O=C1c2c(O)cc(O)cc2OC(c2cc(O)c(OS(=O)(=O)O)c(O)c2)C1O` (stereo not drawn) [A4′S, ampelopsin‐4′‐O‐sulfate]: at OATP2B1, the “cellular flavonoid level in OATP2B1‐overexpressing versus mock control cells” value is on record as “did not show statistically significant differences” and the “substrate of OATP2B1” value is “not substrates”. Moreover, on OATP1B1, the “cellular flavonoid level in OATP1B1‐overexpressing versus mock control cells” value was “did not show statistically significant differences” and the “substrate of OATP1B1” value is given as “not substrates”.
